Assay results from patent US20220062258A1, “Heterocyclic derivatives” (Merck Patent GmbH, priority 2019, published 2022).

Target: MetAP-2 (Homo sapiens, UniProt P50579)
Test: Biochemical activity testing of MetAP-2 (enzyme-coupled assay, Met-Ala-Ser substrate)
Parameters: N-terminal His tag human rec MetAP2 (prepared in house, AA 2-478, final concentration (fc) 123 nM); His tag (N); TEV cleavage site (N); made in house
Protocol: Biochemical Activity Testing of MetAP-2
MetAP-2 activity was determined by an enzyme-coupled assay using the tripeptide Met-Ala-Ser (MAS) as substrate and recombinant human MetAP-2 (His-Tev-MetAP-2, prepared at Merck). The released methionine is converted by L-amino acid oxidase (AAO) to oxidized Methionine and hydrogen peroxide is released. In a second step horse radish peroxidase catalyzes the oxidation of the leuko dye dianisidine to oxidized dianisidine using hydrogen peroxide as co-substrate. The produced dianisidine ox was detected photometrically as increase in absorbance at 450 nm. Met-AP2 activity was determined in a kinetic measurement mode. The release of one molecule methionine corresponds to the production of one molecule dianisidine ox. The MetAP2 enzymatic activity is directly corresponding to the increase in absorbance per time.
In detail, the assay was performed in 384 well microtiter plate (Greiner 78110 MTP, transparent) in a total reaction volume of 50 μl at 22° C. 0.35 μg of N-terminal His tag human rec MetAP2 (prepared in house, AA 2-478, final concentration (fc) 123 nM), 1 unit horse radish Peroxidase (Roche, Mannheim), 0.02 unit L-amino acid oxidase (Merck, Darmstadt), 0.6 mM dianisidine (Merck, Darmstadt, dissolved in 50 mM HCl, 10% DMSO) were incubated in the absence or presence of the test compound (10 dilution concentrations) in 100 mM Hepes, 50 mM NaCl, 50 μM MnCl2 at pH 7.0 for 15 min at 22° C. The reaction was started by the addition of 500 μM (fc) MAS peptide (Merck, Darmstadt). After mixing the first absorbance measurement was performed on an Envision multimode reader (Perkin-Elmer, Waltham) at wavelength of 450 nm. The reaction was incubated at 22° C. for additional 45 min and the second absorbance measurement was performed. The increase of absorbance per time was determined. The control value used was the inhibitor-free reaction with 0.5% DMSO (fc). As pharmacological inhibitor control Fumagillin (Merck, Darmstadt) in a final concentration of 5 μM was used. The inhibitory values (IC50) were determined using the program ASSAY ANALYZER® from GeneData (Basel, Switzerland).

Sequence of MetAP-2 (P50579 2-478): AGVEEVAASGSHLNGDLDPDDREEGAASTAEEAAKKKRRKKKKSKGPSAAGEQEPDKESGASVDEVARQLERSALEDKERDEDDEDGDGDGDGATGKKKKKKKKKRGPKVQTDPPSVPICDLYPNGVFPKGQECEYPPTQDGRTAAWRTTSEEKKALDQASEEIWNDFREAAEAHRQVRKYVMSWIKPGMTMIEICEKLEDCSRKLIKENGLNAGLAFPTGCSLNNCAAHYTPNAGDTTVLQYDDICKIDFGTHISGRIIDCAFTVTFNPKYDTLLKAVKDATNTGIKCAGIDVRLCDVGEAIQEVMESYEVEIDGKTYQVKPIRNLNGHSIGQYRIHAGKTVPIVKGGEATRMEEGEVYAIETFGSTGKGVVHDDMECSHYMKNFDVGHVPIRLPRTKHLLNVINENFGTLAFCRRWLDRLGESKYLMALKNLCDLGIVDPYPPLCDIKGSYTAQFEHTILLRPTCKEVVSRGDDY

Compound	IC50 [nM]
O=C1CCC(N2C(=O)c3cccc(NCCOCCOCCOCCOCCOCCNC(=O)c4cc5cc(N6CCC(O)(C(=O)NCc7cc(F)cc(F)c7)C6=O)ccc5[nH]4)c3C2=O)C(=O)N1 (centres unmarked) [Compound A1, 5-[3-[(3,5-difluorophenyl)methylcarbamoyl]-3-hydroxy-2-oxo-pyrrolidin-1-yl]-N-[2-[2-[2-[2-[2-[2-[[2-(2,6-dioxo-3-piperidyl)-1,3-dioxo-isoindolin-4-yl]amino]ethoxy]ethoxy]ethoxy]ethoxy]ethoxy]ethyl]-1H-indole-2-carboxamide]	190
O=C1CCC(N2C(=O)c3ccc(NCCOCCOCCOCCOCCNC(=O)c4cc5cc(N6CCC(O)(C(=O)NCc7cc(F)cc(F)c7)C6=O)ccc5[nH]4)cc3C2=O)C(=O)N1 (centres unmarked) [Compound A2, 5-[3-[(3,5-difluorophenyl)methylcarbamoyl]-3-hydroxy-2-oxo-pyrrolidin-1-yl]-N-[2-[2-[2-[2-[2-[[2-(2,6-dioxo-3-piperidyl)-1,3-dioxo-isoindolin-5-yl]amino]-ethoxy]ethoxy]ethoxy]ethoxy]ethyl]-1H-indole-2-carboxamide]	250
